Experiments:
cultured cotton ovules [1] = assay: In-vitro cotton ovule culture assay, phenotypic observation of fiber growth; assay type: cell-based; conditions: tested 1-NAA 1, 5, 10, 20 μM; GA3 0.1, 0.5, 1, 5 μM; Anacardic acid 2, 4, 8, 10 μM; 32° C.
Source text: In the present invention, Anacardic acid may be dissolved in solvents selected from Dimethyl Sulfoxide (DMSO), Dimethyl formamide (DMFO), ethanol methanol, dichloromethane, ether, petroleum ether and ethyl acetate in a suitable concentration and mixed with 1Naphthaleneacetic Acid (1-NAA) and Gibberellic acid (GA3). For standardization of appropriate concentrations of phytohormones and Anacardic acid for better yield and quality of fiber, the formulation and its components were first tested on cultured ovules. Different concentrations of 1-NAA (1, 5, 10 and 20 μM) and GA3 (0.1, 0.5, 1 and 5 μM) were tested in ovule culture media and established that fiber growth was better at 5 μM 1-NAA and 0.5 μM GA3. Similarly, different concentrations of Anacardic acid (2, 4, 8 and 10 μM) were also used and established that fiber growth was better at 8 μM Anacardic acid in media in comparison to other concentrations.
Formulation was diluted with modified ½ MSL (Murasighe Skoog Liquid) media having 2% sucrose for a final concentration of Anacardic acid to 8 μM, 1-NAA to 5 μM and GA3 to 0.5 μM. This formulation was then used to culture cotton, ovules excised at −3 DPA (Day Post Anthesis) to study its effect on fiber initiation and at 0 DPA for fiber elongation. Ovules were examined (at 3 DPA for initiation and at 12 DPA for elongation stage) and photographed (Example 1). […] Cotton ovules cultured with the formulation (1-NAA+GA3+ Anacardic acid) in culture media show higher number of initiating fibers and better growth in comparison to control ovules (only phytohormones treated).
For standardization of appropriate concentrations of phytohormones and Anacardic acid for better yield and quality of fiber, the formulation and its components were first tested on cultured ovules. […]
Finally, in-vitro ovule culture experiment was performed with 8 μM Anacardic acid, 5 μM 1-NAA and 0.5 μM GA3 in media along with control sample having only 5 μM 1-NAA and 0.5 μM GA3. The phenotypic observations were recorded at 3 DPA for initiation stage and at 12 DPA for elongation stage (FIG. 1).

cultured cotton ovules [2] = assay: Ovule culture with different phytohormones with and without Anacardic acid; assay type: cell-based; conditions: 12 DPA; for growth in cultures having Anacardic acid with phytohormone: Anacardic acid added at 3 DPA, in comparison to control where only phytohormones were used; for Lignin content of ovules cultured with Anacardic acid and phytohormone: toluidine blue, in comparison to control wherein only phytohormones are used
Procedure: To check the effect of the phytohormones on fiber development for better yield and quality of fibers, different phytohormones and their combinations were tested first tested on cultured ovules. Cotton buds and flowers at 1 DPA stage were plucked from the plants for the ovule culture. Ovaries were surface sterilized using 1% Mercuric chloride solution and washed three times with MQ water. Ovules were excised using sterilized fine forceps and brushes. Isolted ovules (3-5) were transferred to culture media with different 5 μM of 1-Naphthaleneacetic acid (1NAA), Indole-3-acetic acid (IAA), 2,4-Dichlorophenoxyacetic acid (2,4-D), Kinetin, Zeatin and 0.5 μM Gibberellic acid (GA3)along with untreated ovules (having no phytohormones) placed in 35mm tissue culture dishes in two sets. All the dishes were further places in incubators set at 32° C. In one set of dishes, Anacardic acid was added to 3 DPA stage, while the other set was used to control. It has been observed that at 12 DPA stage growth in cultures having Anacardic acid with phytohormones like 1-NAA, IAA, 2,4-D and GA3 at […] was better in comparison to the control conditions, where only phytohormones were used (FIG. 8). […] For the lignin qualification, ovules were boiled in distilled water with a drop of concentrated HCl to dissolve waxes and leave the fibers hydrophilic. After rinsing in distilled water, three ovules per sample were places in a 50 ml falcon tube and stained with 30 ml. of toluidine blue solution (0.018% toluidine blue, 0.016 M Na2HPO4, 0.01 M citric acid, pH 4.5) for 30 s. After staining, the ovules were rinsed thoroughly with distilled water and briefly laid on absorbent paper to remove excess water. Ovules were then returned to 50 ml falcon tubes and 50 ml of destaining solution comprising glacial acetic acid, ethanol and water (10:95:5) added. After vigorous shaking and destaining for at least 1 h, 200μl of the solution was pipetted in triplicate into 96-well flat bottom microtiter plates for measurement of absorbance at 624 nm in a plate reader.

Compound: O=C(O)Cc1cccc2ccccc12 [1-NAA, 1-Naphthaleneacetic acid]
- concentration at which fiber growth in ovule culture was better (cultured cotton ovules [1]): 5 µM
- growth in cultures having Anacardic acid with phytohormone (cultured cotton ovules [2]): better
- Lignin content of ovules cultured with Anacardic acid and phytohormone (cultured cotton ovules [2]): higher

Compound: O=C(O)COc1ccc(Cl)cc1Cl [2,4-D, 2,4-Dichlorophenoxyacetic acid]
- growth in cultures having Anacardic acid with phytohormone (cultured cotton ovules [2]): better
- Lignin content of ovules cultured with Anacardic acid and phytohormone (cultured cotton ovules [2]): higher

Compound: CCCCCCCCCCCCCCCc1cccc(O)c1C(=O)O [Anacardic acid]
- concentration at which fiber growth in ovule culture was better (cultured cotton ovules [1]): 8 µM

Compound: C=C1C[C@]23C[C@@]1(O)CC[C@H]2[C@@]12C=C[C@H](O)[C@@](C)(C(=O)O1)[C@H]2[C@@H]3C(=O)O [GA3, Gibberellic acid]
- concentration at which fiber growth in ovule culture was better (cultured cotton ovules [1]): 0.5 µM
- growth in cultures having Anacardic acid with phytohormone (cultured cotton ovules [2]): better
- Lignin content of ovules cultured with Anacardic acid and phytohormone (cultured cotton ovules [2]): higher

Compound: O=C(O)Cc1c[nH]c2ccccc12 [IAA, Indole-3-acetic acid]
- growth in cultures having Anacardic acid with phytohormone (cultured cotton ovules [2]): better
- Lignin content of ovules cultured with Anacardic acid and phytohormone (cultured cotton ovules [2]): higher

From patent US10111427B2, “Formulation for improving the yield and quality of fiber in cotton plants” (Council of Scientific & Industrial Research, priority 2015, dated 2018)
